These results are taken from patent US20230061608A1, “SUBSTITUTED QUINOLINONYL PIPERAZINE COMPOUNDS USEFUL AS T CELL ACTIVATORS” (BRISTOL-MYERS SQUIBB COMPANY, priority 2019, published 2023).

SMILES strings stand for the structures.

One assay concerns the target T1, DGKα (Homo sapiens, UniProt P23743).
T1 construct: made in house; host or cells: Sf9 insect cells, baculovirus (Bac-to-Bac)
The assay is described as follows: In vitro DGK inhibition assay, DGKα LIPGLO (extruded liposomes). The format is biochemical. The following applies: liposome (LIPGLO) assay, 150 μM ATP, 5 nM enzyme. On the procedure: (§1) Assay 1: In vitro DGK Inhibition Assays—Method A
(§2) The DGKα and DGKζ reactions were performed using extruded liposomes (DGKα and DGKζ LIPGLO assays). The reactions were carried out in 50 mM MOPS pH 7.5, 100 mM NaCl, 10 mM MgCl2, 1 μM CaCl2), and 1 mM DTT (assay buffer). The lipid substrate concentrations were 2 mM PS, 0.25 mM DAG, and 2.75 mM PC for the extruded liposome reactions. The reactions were carried out in 150 μM ATP. The enzyme concentrations for the DGKα and DGKζ were 5 nM.
(§3) The compound inhibition studies were carried out as follows: 50 nL droplets of each test compound (top concentration 10 mM with 11 point, 3-fold dilution series for each compound) solubilized in DMSO were transferred to wells of a white 1536 well plate (Corning 3725). A 5 mL enzyme/substrate solution at 2× final reaction concentration was prepared by combining 2.5 mL 4× enzyme solution (20 nM DGKα or DGKζ (prepared as described below) in assay buffer) and 2.5 mL of 4× liposome solution (compositions described below) and incubated at room temperature for 10 minutes. Next, 1 μL 2× enzyme/substrate solution was added to wells containing the test compound and reactions were initiated with the addition of 1 μL 300 uM ATP. The reactions were allowed to proceed for 1 hr, after which 2 μL Glo Reagent (Promega V9101) was added and incubated for 40 minutes. Next, 4 μL Kinase Detection Reagent was added and incubated for 30 minutes. Luminescence was recorded using an EnVision microplate reader. The percent inhibition was calculated from the ATP conversion generated by no enzyme control reactions for 100% inhibition and vehicle-only reactions for 0% inhibition. The compounds were evaluated at 11 concentrations to determine IC50.
(§4) The lipid composition was 5 mol % DAG (Avanti 8008110), 40 mol % PS (Avanti 840035P), and 55 mol % PC (Avanti 850457) at a total lipid concentration of 15.2 mg/mL for the 4× liposome solution. The PC, DAG, and PS were dissolved in chloroform, combined, and dried in vacuo to a thin film. The lipids were hydrated to 20 mM in 50 mM MOPS pH 7.5, 100 mM NaCl, 5 mM MgCl2, and were freeze-thawed five times. The lipid suspension was extruded through a 100 nm polycarbonate filter eleven times. Dynamic light scattering was carried out to confirm liposome size (50-60 nm radius). The liposome preparation was stored at 4° C. for as long as four weeks.
(§5) Human DGK-alpha-TVMV-His-pFBgate and human DGK-zeta-transcript variant-2-TVMV-His-pFBgate baculovirus samples were generated using the Bac-to-Bac baculovirus expression system (Invitrogen) according to the manufacturer's protocol. The DNA used for expression of DGK-alpha and DGK-zeta have SEQ ID NOs: 1 and 3, respectively. Baculovirus amplification was achieved using infected Sf9 cells at 1:1500 virus/cell ratios, and grown for 65 hours at 27° C. post-transfection.
(§6) Full length human DGKα and DGKζ, each expressed containing a TVMV-cleavable C-terminal Hexa-His tag sequence (SEQ ID NOs: 2 and 4, respectively) and produced as described above, were purified from Sf9 baculovirus-infected insect cell paste. The cells were lysed using nitrogen cavitation method with a nitrogen bomb (Parr Instruments), and the lysates were clarified by centrifugation. The clarified lysates were purified to ˜90% homogeneity, using three successive column chromatography steps on an ÄKTA Purifier Plus system. The three steps column chromatography included nickel affinity resin capture (i.e. HisTrap FF crude, GE Healthcare), followed by size exclusion chromatography (i.e. HiLoad 26/600 Superdex 200 prep grade, GE Healthcare for DGK-alpha, and HiPrep 26/600 Sephacryl S 300_HR, GE Healthcare for DGK-zeta). The third step was ion exchange chromatography, and differed for the two isoforms. DGKα was polished using Q-Sepharose anion exchange chromatography (GE Healthcare). DGKζ was polished using SP Sepharose cation exchange chromatography (GE Healthcare). The proteins were delivered at concentrations of ≥2 mg/mL. […]

A further assay addresses T2, DGKζ (Homo sapiens, UniProt Q13574).
T2 construct: Full length human DGKα and DGKζ, each expressed containing a TVMV-cleavable C-terminal Hexa-His tag; made in house; host or cells: Sf9 insect cells, baculovirus (Bac-to-Bac)
As to the kind of experiment: In vitro DGK inhibition assay, DGKζ LIPGLO (extruded liposomes). The format is biochemical. The conditions noted are these: liposome (LIPGLO) assay, 150 μM ATP, 5 nM enzyme. On the procedure:
as §1, §2, §3, §4, §5, §6

T2 sequence (Q13574 1-929 isoform Q13574-4): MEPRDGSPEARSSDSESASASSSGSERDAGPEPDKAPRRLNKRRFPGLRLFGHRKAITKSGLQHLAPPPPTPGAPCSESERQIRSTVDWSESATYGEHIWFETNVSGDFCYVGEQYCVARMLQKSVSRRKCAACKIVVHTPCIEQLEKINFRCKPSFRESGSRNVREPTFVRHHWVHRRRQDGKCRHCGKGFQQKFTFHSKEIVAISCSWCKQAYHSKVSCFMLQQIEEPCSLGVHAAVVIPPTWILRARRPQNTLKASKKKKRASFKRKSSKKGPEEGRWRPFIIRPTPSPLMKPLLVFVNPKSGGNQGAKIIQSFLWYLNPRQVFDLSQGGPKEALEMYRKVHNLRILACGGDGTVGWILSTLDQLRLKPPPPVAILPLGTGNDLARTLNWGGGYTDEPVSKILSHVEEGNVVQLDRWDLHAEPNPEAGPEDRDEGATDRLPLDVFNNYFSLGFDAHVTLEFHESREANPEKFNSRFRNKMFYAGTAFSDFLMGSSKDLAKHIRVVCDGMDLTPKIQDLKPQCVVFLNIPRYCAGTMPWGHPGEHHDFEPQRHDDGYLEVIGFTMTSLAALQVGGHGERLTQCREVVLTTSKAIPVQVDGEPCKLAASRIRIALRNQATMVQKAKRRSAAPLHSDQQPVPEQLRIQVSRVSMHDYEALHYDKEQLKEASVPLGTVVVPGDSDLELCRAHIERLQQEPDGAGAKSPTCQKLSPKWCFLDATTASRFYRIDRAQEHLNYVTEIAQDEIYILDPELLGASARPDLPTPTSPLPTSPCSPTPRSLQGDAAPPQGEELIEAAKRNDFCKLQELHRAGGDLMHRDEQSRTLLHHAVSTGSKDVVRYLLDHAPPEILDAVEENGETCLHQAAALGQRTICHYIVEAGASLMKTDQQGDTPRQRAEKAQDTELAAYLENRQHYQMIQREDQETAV
T1 sequence (P23743 whole entry): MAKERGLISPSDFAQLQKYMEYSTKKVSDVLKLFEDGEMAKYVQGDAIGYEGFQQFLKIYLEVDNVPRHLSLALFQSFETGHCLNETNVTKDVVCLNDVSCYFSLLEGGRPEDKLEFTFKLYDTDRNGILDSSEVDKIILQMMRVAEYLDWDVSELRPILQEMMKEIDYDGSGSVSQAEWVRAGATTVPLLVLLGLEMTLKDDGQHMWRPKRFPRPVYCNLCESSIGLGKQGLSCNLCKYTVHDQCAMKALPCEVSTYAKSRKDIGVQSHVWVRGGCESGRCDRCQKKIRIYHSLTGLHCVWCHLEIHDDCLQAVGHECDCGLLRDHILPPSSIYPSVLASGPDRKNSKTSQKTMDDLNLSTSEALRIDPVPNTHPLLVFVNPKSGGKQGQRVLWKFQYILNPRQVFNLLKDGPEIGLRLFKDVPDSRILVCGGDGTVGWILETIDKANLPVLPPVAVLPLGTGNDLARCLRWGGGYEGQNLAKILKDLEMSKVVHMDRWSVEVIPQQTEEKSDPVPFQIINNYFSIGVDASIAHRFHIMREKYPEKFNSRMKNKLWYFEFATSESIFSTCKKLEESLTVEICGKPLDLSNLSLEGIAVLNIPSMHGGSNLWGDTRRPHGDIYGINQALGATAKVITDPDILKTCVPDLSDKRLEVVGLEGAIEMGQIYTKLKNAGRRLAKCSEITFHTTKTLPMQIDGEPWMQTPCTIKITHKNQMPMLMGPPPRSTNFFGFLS

By IC50 is commonly meant the midpoint of a concentration-inhibition curve. Low readings indicate inhibition by little substance, high ones a need for much substance. In the case of `Cn1c(=O)c([N+](=O)[O-])c(N2CCN(Cc3ccccc3)C(=O)C2)c2cc(F)ccc21` [Example 5, 4-(4-benzyl-3-oxopiperazin-1-yl)-6-fluoro-1-methyl-3-nitro-1,2-dihydroquinolin-2-one], the IC50 was 0.5 µM at DGKα and over 240 µM against DGKζ.
Consider `CCn1ccc2c(CN3CCN(c4c([N+](=O)[O-])c(=O)n(C)c5ccc(F)cc45)CC3)cccc21` [Example 4, 4-{4-[(1-ethyl-1H-indol-4-yl)methyl]piperazin-1-yl}-6-fluoro-1-methyl-3-nitro-1,2-dihydroquinolin-2-one], for which the IC50 on DGKα was 0.15 µM; against DGKζ, 7.9 µM.
In the case of `Cc1cc(F)cc(CN2CCN(c3c(-c4ccncc4)c(=O)n(C)c4ccc(F)cc34)CC2)c1` [Example 2, 6-fluoro-4-{4-[(3-fluoro-5-methylphenyl)methyl]piperazin-1-yl}-1-methyl-3-(pyridin-4-yl)-1,2-dihydroquinolin-2-one], the results for the IC50 on DGKα and against DGKζ were 0.051 µM and 35 µM, respectively.
For `C[C@@H]1CN(c2c(C#N)c(=O)n(C)c3ccccc23)[C@@H](C)CN1C(c1ccc(F)cc1)c1ccc(F)cc1` (stereo in doubt) [Example 6, 4-[(2S,5R)-4-[bis(4-fluorophenyl)methyl]-2,5-dimethylpiperazin-1-yl]-1-methyl-2-oxo-1,2-dihydroquinoline-3-carbonitrile], the figures for the IC50 against DGKα and at DGKζ were 0.7 µM and over 27 µM, respectively.
As to `C[C@@H]1CN(c2cc(=O)n(C)c3ccc(C#N)cc23)[C@@H](C)CN1C(c1ccc(F)cc1)c1ccc(F)cc1` (stereo in doubt) [Example 7, 4-[(2S,5R)-4-[bis(4-fluorophenyl)methyl]-2,5-dimethylpiperazin-1-yl]-1-methyl-2-oxo-1,2-dihydroquinoline-6-carbonitrile], the figures for the IC50 against DGKα and against DGKζ were 1.3 µM and over 250 µM, respectively.
Taken in the same sequence, the figures for `Cn1c(=O)c(CO)c(N2CCN(C(c3ccccc3)c3ccccc3)CC2)c2ccccc21` [Example 11, 4-[4-(diphenylmethyl)piperazin-1-yl]-3-(hydroxymethyl)-1-methyl-1,2-dihydroquinolin-2-one] were 90 µM and over 240 µM.
As for `COc1ccc2c(c1)c(N1CCN(Cc3cccc4ccccc34)CC1)c([N+](=O)[O-])c(=O)n2C` [Example 8, 6-methoxy-1-methyl-4-{4-[(naphthalen-1-yl)methyl]piperazin-1-yl}-3-nitro-1,2-dihydroquinolin-2-one], the IC50 is 39 µM against DGKα and 82 µM at DGKζ.
For `Cn1c(=O)c([N+](=O)[O-])c(N2CCN(Cc3cccc(F)c3)CC2)c2cc(F)ccc21` [Example 1, 6-fluoro-4-{4-[(3-fluorophenyl)methyl]piperazin-1-yl}-1-methyl-3-nitro-1,2-dihydroquinolin-2-one], in that order: 0.0073 µM and 41 µM.
